Data published in ChEMBL document CHEMBL4834428 (J Med Chem, 2021).

Key:
[1] = biological target: T1, NAD-dependent protein deacetylase sirtuin-2 (Homo sapiens, UniProt Q8IXJ6); assay: Inhibition of His6-tagged/TEV fused SIRT2 (unknown origin) expressed in Escherichia coli BL21 (DE3) preincubated for 15 mins followed by NAD+ addition and measured after 30 mins by FLucK529Ac based luminescence assay
T1 sequence (Q8IXJ6 whole entry): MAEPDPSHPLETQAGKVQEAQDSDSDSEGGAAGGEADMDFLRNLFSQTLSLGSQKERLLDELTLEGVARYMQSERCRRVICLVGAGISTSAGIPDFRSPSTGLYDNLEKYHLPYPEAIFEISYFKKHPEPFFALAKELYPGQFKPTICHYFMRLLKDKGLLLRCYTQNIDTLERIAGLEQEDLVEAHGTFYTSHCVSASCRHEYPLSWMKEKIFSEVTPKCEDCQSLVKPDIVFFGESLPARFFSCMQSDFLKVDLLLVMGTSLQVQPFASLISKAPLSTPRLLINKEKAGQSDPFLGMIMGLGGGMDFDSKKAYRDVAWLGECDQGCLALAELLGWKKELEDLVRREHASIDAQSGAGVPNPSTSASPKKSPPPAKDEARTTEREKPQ

[2] = biological target: T2, NAD-dependent protein deacetylase sirtuin-3, mitochondrial (Homo sapiens, UniProt Q9NTG7); assay: Inhibition of His6-tagged/TEV fused SIRT3 (unknown origin) expressed in Escherichia coli BL21 (DE3) preincubated for 15 mins followed by NAD+ addition and measured after 30 mins by FLucK529Ac based luminescence assay
T2 sequence (Q9NTG7 whole entry): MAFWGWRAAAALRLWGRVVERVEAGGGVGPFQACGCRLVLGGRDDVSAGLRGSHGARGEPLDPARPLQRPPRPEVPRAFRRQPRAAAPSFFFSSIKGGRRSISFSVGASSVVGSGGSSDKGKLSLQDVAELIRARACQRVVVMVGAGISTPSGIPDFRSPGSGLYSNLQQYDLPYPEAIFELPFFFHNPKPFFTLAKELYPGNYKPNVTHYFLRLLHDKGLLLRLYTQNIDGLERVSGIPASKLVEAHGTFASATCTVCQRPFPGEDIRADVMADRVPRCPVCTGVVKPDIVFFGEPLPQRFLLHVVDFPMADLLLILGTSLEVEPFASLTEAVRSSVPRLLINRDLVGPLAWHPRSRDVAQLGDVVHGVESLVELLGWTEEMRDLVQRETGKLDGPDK

[3] = biological target: T3, NAD-dependent protein deacetylase sirtuin-1 (Homo sapiens, UniProt Q96EB6)
T3 sequence (Q96EB6 whole entry): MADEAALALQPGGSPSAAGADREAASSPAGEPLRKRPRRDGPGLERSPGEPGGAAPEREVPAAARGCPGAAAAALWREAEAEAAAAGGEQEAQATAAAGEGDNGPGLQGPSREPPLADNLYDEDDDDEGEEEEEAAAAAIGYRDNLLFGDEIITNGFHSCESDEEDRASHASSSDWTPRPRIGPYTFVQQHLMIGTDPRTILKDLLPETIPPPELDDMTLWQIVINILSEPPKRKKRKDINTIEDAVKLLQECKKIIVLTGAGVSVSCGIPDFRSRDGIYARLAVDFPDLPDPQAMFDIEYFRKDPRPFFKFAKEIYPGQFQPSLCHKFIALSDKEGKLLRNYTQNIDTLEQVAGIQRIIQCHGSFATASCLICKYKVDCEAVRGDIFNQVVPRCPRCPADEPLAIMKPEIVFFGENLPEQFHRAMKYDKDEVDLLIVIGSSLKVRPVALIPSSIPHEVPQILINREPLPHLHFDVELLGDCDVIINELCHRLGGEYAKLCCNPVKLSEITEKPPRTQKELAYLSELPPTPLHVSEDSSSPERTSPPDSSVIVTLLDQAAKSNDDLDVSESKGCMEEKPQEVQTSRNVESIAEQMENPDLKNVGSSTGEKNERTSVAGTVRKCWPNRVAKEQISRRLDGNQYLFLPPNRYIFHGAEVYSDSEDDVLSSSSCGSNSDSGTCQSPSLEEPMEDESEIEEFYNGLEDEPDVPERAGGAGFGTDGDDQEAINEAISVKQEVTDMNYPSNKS
Description: Inhibition of His6-tagged SIRT1 (unknown origin) expressed in Escherichia coli BL21 (DE3) preincubated for 15 mins followed by NAD+ addition and measured after 30 mins by FLucK529Ac based luminescence assay

[4] = biological target: T3, NAD-dependent protein deacetylase sirtuin-1; remark: listed apart in the source
Description: Uncompetitive inhibition of His6-tagged SIRT1 (unknown origin) expressed in Escherichia coli BL21 (DE3) assessed as inhibition constant measured every 2 mins for 30 mins in presence of NAD+ and ATP by FLucK549Ac based Michaelis-Menten analysis

| Structure (SMILES) | IC50 [1] [µM] | IC50 [2] [µM] | IC50 [3] [µM] | Ki [4] [µM] |
| --- | --- | --- | --- | --- |
| N#Cc1ccccc1CN1CC(C(N)=O)Oc2ccccc21 (stereo in doubt; 4.27) | 37.7 | > 60 | 0.22 | 0.4 |
| NC(=O)C1CN(Cc2ccccc2C(=O)O)c2ccccc2O1 (stereo not given) | > 60 | > 60 | 13.9 |  |
| COC(=O)c1ccccc1CN1CC(C(N)=O)Oc2ccccc21 (stereo not given) | > 60 | > 60 | 0.49 |  |
